{"source": "patent US6713488B2", "about": "(priority 2000, dated 2004)", "key": {"δ opioid receptor": {"target": "T1, δ opioid receptor (Mus musculus, UniProt P32300)", "T1 construct": "expressed in transfected cells; host or cells: HEK 293", "T1 sequence (P32300 whole entry)": "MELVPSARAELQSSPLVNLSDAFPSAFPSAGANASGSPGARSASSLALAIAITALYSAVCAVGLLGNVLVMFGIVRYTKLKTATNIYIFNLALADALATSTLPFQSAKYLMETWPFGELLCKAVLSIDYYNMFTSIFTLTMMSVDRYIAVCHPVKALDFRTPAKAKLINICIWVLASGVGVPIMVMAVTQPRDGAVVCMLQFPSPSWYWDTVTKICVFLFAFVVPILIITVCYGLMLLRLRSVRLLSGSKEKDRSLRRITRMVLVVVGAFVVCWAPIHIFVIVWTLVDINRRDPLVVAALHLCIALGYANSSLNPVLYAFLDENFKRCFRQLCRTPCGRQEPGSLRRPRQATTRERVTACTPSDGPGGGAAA", "experiment": "3H-naloxone equilibrium binding to DOR", "conditions": "3H-naloxone 2 nM tracer, mean of triplicate ± SD"}, "human MOR [1]": {"target": "T2, human MOR (Homo sapiens, UniProt P35372)", "T2 construct": "FLAG (N); expressed in transfected cells; host or cells: HEK 293", "T2 sequence (P35372 whole entry)": "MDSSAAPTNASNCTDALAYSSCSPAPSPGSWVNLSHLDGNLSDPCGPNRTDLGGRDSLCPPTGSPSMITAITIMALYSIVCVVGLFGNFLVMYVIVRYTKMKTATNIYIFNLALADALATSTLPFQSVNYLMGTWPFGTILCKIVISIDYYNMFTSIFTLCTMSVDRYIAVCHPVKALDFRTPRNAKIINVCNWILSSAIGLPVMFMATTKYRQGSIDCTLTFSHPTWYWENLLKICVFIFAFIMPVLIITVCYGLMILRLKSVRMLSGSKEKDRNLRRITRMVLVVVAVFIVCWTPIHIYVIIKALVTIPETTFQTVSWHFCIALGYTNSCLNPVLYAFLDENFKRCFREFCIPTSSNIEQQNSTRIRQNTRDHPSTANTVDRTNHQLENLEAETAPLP", "type": "biochemical"}, "[2]": {"test_system": "acute mouse model of morphine dependence", "experiment": "withdrawal jumping in acute mouse model of morphine dependence", "type": "in vivo, mice", "conditions": "10 mg/kg i.p.; for reduction of jumping versus parent compound: acute morphine dependence; for withdrawal jumping: mice pretreated once with morphine 100 mg/kg s.c. -4 hr, 15 minutes observation"}, "μ opioid receptor": {"target": "T3, μ opioid receptor (Homo sapiens, UniProt P35372)", "T3 construct": "FLAG (N); expressed in transfected cells", "T3 sequence (P35372 whole entry)": "as above", "type": "binding"}, "[3]": {"test_system": "morphine-induced antinociception", "experiment": "antagonism of morphine antinociception, 55° C. warm-water tail flick assay", "type": "in vivo, mice", "conditions": "for blockade of antinociceptive actions of morphine: 10 mg/kg i.p., morphine 20 nmol i.c.v. (A90), 55° C. tail-flick; for ID50 value against morphine-induced antinociception: morphine 20 nmol i.c.v."}, "human MOR [4]": {"target": "T2, human MOR", "type": "cell-based"}, "[5]": {"test_system": "chronic mouse model of morphine dependence", "experiment": "withdrawal jumping in chronic mouse model of morphine dependence (morphine pellet implantation)", "type": "in vivo, mice", "conditions": "for dose needed to elicit 100 jumps/mouse / plateau of withdrawal jumping: i.p."}, "DOR": {"target": "DOR (Rattus norvegicus, UniProt P33533)", "sequence (P33533 whole entry)": "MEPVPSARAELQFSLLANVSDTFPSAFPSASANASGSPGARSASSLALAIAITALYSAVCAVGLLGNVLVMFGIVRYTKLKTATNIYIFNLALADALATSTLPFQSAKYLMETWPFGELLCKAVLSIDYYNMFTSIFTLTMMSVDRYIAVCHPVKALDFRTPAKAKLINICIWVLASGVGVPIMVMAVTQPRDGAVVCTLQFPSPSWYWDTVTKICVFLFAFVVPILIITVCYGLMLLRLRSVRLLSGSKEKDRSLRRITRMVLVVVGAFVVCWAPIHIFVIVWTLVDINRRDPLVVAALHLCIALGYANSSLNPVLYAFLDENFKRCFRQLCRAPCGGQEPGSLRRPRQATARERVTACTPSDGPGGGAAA", "conditions": "cited from earlier work"}, "SH-SY5Y cells": {"test_system": "SH-SY5Y cells", "conditions": "cited from earlier work"}, "drug-dependent mice": {"test_system": "drug-dependent mice", "conditions": "cited from earlier work"}}, "note": "“Also recorded” adds a separate entry of the source.", "data": [{"compound": "C=CCN1CC[C@]23c4c5ccc(O)c4O[C@H]2[C@@H](O)CC[C@@]3(O)[C@H]1C5", "note": "[6α-Naloxol, 6α-naloxol]", "values": [{"measurement": "Ki", "setting": "δ opioid receptor", "result": "2.1 ± 0.2", "unit": "nM"}, {"measurement": "blockade of inverse-agonistic effects of β-CNA", "setting": "human MOR [1]", "result": "blocked"}, {"measurement": "effect on basal 35S-GTPγS binding activity", "setting": "human MOR [1]", "result": "no significant effect"}, {"measurement": "reduction of jumping versus parent compound", "setting": "[2]", "result": "approximately 50%"}, {"measurement": "Ki", "setting": "μ opioid receptor", "result": "0.63 ± 0.04", "unit": "nM"}, {"measurement": "blockade of antinociceptive actions of morphine", "setting": "[3]", "result": "blocked"}, {"measurement": "effect on forskolin stimulated cAMP levels", "setting": "human MOR [4]", "result": "no effect"}]}, {"compound": "Oc1ccc2c3c1O[C@H]1[C@H](O)CC[C@@]4(O)[C@@H](C2)N(CC2CC2)CC[C@]314", "note": "[6α-Naltrexol, 6α-naltrexol]", "values": [{"measurement": "Ki", "setting": "δ opioid receptor", "result": "2.4 ± 0.1", "unit": "nM"}, {"measurement": "reduction of jumping versus parent compound", "setting": "[2]", "result": "approximately 50%"}, {"measurement": "blockade of antinociceptive actions of morphine", "setting": "[3]", "result": "blocked"}]}, {"compound": "N[C@H]1CC[C@@]2(O)[C@H]3Cc4ccc(O)c5c4[C@@]2(CCN3CC2CC2)[C@H]1O5", "note": "[6α-naltrexamine]", "values": [{"measurement": "effect on basal 35S-GTPγS binding activity", "setting": "human MOR [1]", "result": "no significant effect"}]}, {"compound": "C=CCN1CC[C@]23c4c5ccc(O)c4O[C@H]2[C@H](O)CC[C@@]3(O)[C@H]1C5", "note": "[6β-Naloxol, 6β-naloxol]", "values": [{"measurement": "Ki", "setting": "δ opioid receptor", "result": "2.3 ± 0.05", "unit": "nM"}, {"measurement": "effect on basal 35S-GTPγS binding activity", "setting": "human MOR [1]", "result": "no significant effect"}, {"measurement": "withdrawal jumping", "setting": "[2]", "result": "no withdrawal jumping"}, {"measurement": "Ki", "setting": "μ opioid receptor", "result": "1.1 ± 0.02", "unit": "nM"}, {"measurement": "blockade of antinociceptive actions of morphine", "setting": "[3]", "result": "only partial blockade"}, {"measurement": "effect on forskolin stimulated cAMP levels", "setting": "human MOR [4]", "result": "no effect"}]}, {"compound": "N[C@@H]1CC[C@@]2(O)[C@H]3Cc4ccc(O)c5c4[C@@]2(CCN3CC2CC2)[C@H]1O5", "note": "[6β-Naltrexamine, 6β-naltrexamine]", "values": [{"measurement": "Ki", "setting": "δ opioid receptor", "result": "2.3 ± 0.09", "unit": "nM"}, {"measurement": "withdrawal jumping", "setting": "[2]", "result": "no withdrawal jumping"}, {"measurement": "Ki", "setting": "μ opioid receptor", "result": "0.63 ± 0.05", "unit": "nM"}, {"measurement": "blockade of antinociceptive actions of morphine", "setting": "[3]", "result": "only partial blockade"}]}, {"compound": "Oc1ccc2c3c1O[C@H]1[C@H](O)CC[C@@]4(O)[C@@H](C2)N(CC2CC2)CC[C@]314", "note": "[6β-Naltrexol, 6β-naltrexol]", "values": [{"measurement": "Ki", "setting": "δ opioid receptor", "result": "2.1 ± 0.01", "unit": "nM"}, {"measurement": "dose needed to elicit 100 jumps/mouse", "setting": "[5]", "result": 10, "unit": "mg/kg"}, {"measurement": "withdrawal jumping", "setting": "[2]", "result": "no withdrawal jumping"}, {"measurement": "ID50 value against morphine-induced antinociception", "setting": "[3]; antagonist i.c.v.", "result": 2.3, "unit": "nmol"}, {"measurement": "ID50 value against morphine-induced antinociception", "setting": "[3]; antagonist i.p.", "result": 1.0, "unit": "mg/kg"}]}, {"compound": "CC(=O)N[C@@H]1CC[C@@]2(O)[C@H]3Cc4ccc(O)c5c4[C@@]2(CCN3CC2CC2)[C@@H]1O5", "note": "[6β-naltrexamide]", "values": [{"measurement": "potency in eliciting withdrawal jumping (in words)", "setting": "[5]", "result": "low potency"}, {"measurement": "effect on basal 35S-GTPγS binding activity", "setting": "human MOR [1]", "result": "no significant effect"}, {"measurement": "withdrawal jumping", "setting": "[2]", "result": "no withdrawal jumping"}, {"measurement": "blockade of antinociceptive actions of morphine", "setting": "[3]", "result": "effect similar to 6β-naltrexamine"}]}, {"compound": "O=C1/C(=C/c2ccccc2)C[C@@]2(O)[C@H]3Cc4ccc(O)c5c4[C@@]2(CCN3CC2CC2)[C@H]1O5", "note": "[BNTX, 7-benzylidene-7-dehydronaltrexone, reference compound]", "values": [{"measurement": "intrinsic activity at DOR", "setting": "DOR", "result": "inverse agonists"}, {"measurement": "effect on basal 35S-GTPγS binding activity", "setting": "human MOR [1]", "result": "decreased"}, {"measurement": "effect on forskolin stimulated cAMP levels", "setting": "human MOR [4]", "result": "increased"}]}, {"compound": "O=C(/C=C/c1ccc(Cl)cc1)N[C@@]12CCC(=O)[C@@H]3Oc4c(O)ccc5c4[C@@]31CCN(CC1CC1)[C@@H]2C5", "note": "[C-CAM, clocinnamox, reference compound]", "values": [{"measurement": "intrinsic activity at DOR", "setting": "DOR", "result": "inverse agonists"}, {"measurement": "effect on basal 35S-GTPγS binding activity", "setting": "human MOR [1]", "result": "decreased"}, {"measurement": "effect on forskolin stimulated cAMP levels", "setting": "human MOR [4]", "result": "increased"}]}, {"compound": "C=CCN1CC[C@]23c4c5ccc(O)c4O[C@H]2C(=O)CC[C@@]3(O)[C@H]1C5", "note": "[Naloxone, naloxone, reference compound]", "values": [{"measurement": "dose needed to elicit 100 jumps/mouse", "setting": "[5]", "result": "~0.3", "unit": "mg/kg"}, {"measurement": "plateau of withdrawal jumping", "setting": "[5]", "result": "approximately 200 jumps/mouse"}, {"measurement": "withdrawal jumping", "setting": "[2]", "result": "aversive effects (withdrawal jumping); also recorded: precipitated robust withdrawal jumping"}, {"measurement": "blockade of antinociceptive actions of morphine", "setting": "[3]", "result": "blocked"}, {"measurement": "ID50 value against morphine-induced antinociception", "setting": "[3]; antagonist i.c.v.", "result": 3.4, "unit": "nmol"}, {"measurement": "ID50 value against morphine-induced antinociception", "setting": "[3]; antagonist i.p.", "result": 1.1, "unit": "mg/kg"}, {"measurement": "effect in morphine pretreated SH-SY5Y cells", "setting": "SH-SY5Y cells; morphine pretreated", "result": "inverse agonist"}, {"measurement": "effect in untreated SH-SY5Y cells", "setting": "SH-SY5Y cells; untreated cells", "result": "little effect"}]}, {"compound": "O=C1CC[C@@]2(O)[C@H]3Cc4ccc(O)c5c4[C@@]2(CCN3CC2CC2)[C@H]1O5", "note": "[Naltrexone, naltrexone, reference compound]", "values": [{"measurement": "dose needed to elicit 100 jumps/mouse", "setting": "[5]", "result": "approximately 0.1 mg/kg"}, {"measurement": "plateau of withdrawal jumping", "setting": "[5]", "result": "approximately 200 jumps/mouse"}, {"measurement": "withdrawal jumping", "setting": "[2]", "result": "aversive effects (withdrawal jumping); also recorded: precipitated robust withdrawal jumping"}, {"measurement": "blockade of antinociceptive actions of morphine", "setting": "[3]", "result": "blocked"}, {"measurement": "ID50 value against morphine-induced antinociception", "setting": "[3]; antagonist i.c.v.", "result": 0.26, "unit": "nmol"}, {"measurement": "ID50 value against morphine-induced antinociception", "setting": "[3]; antagonist i.p.", "result": 0.22, "unit": "mg/kg"}]}, {"compound": "C=C1CC[C@@]2(O)[C@H]3Cc4ccc(O)c5c4[C@@]2(CCN3CC2CC2)[C@H]1O5", "note": "[nalmefene, reference compound]", "values": [{"measurement": "effect on basal 35S-GTPγS binding activity", "setting": "human MOR [1]", "result": "decreased"}]}, {"compound": "COC(=O)C=CC(=O)NC1CCC2(O)C3Cc4ccc(O)c5c4C2(CCN3CC2CC2)C1O5.Cl", "note": "(stereo not drawn) [β-FNA, β-funaltrexamine HCl, reference compound]", "values": [{"measurement": "effect on basal 35S-GTPγS binding activity", "setting": "human MOR [1]", "result": "no significant effect"}]}, {"compound": "D-Phe-Cys-Tyr-D-Trp-Arg-Thr-Pen-Thr-Nh2 [CTAP]", "values": [{"measurement": "withdrawal elicited compared with naloxone", "setting": "drug-dependent mice", "result": "significantly less withdrawal than naloxone"}]}]}
